What is called Km is the substrate concentration at which the rate is half of its maximum. By kcat is commonly meant the number of substrate molecules converted per active site and unit of time at saturation.

Where two headings read alike, the source gives them in different places.

For assay [1], the system named is tyrosine ammonia lyase (TAL) from Rhodobacter capsulatus. The class given is biochemical. The note with it: for pH optimum of activity (TAL with L-tyrosine, PAL with L-phenylalanine): pH 6. How it is done: Both activities were followed by the following spectrophotometric assay (adapted from Rösler et al. (1997)): PAL activity was assayed by following cinnamic acid formation at 280 nm using a double beam spectrophotometer (Uvikon, Kontron, Herts, United Kingdom) in 10 mM Tris buffer at 35° C. The pH optimum was determined between the pH values 6-10. The substrate concentrations were varied between 5 mM and 0.2 mM. TAL activity was assayed by monitoring p-hydroxycinnamic acid formation at 310 nm and 35° C. The substrate concentration was varied between 2 mM and 0.01 mM. All reactions were performed in a total volume of 1 ml.
FIG. 3 presents Lineweaver-Burk plots for the two substrates at their respective pH optimum.
Since PAL and TAL sequences show significant homology to histidine ammonia lyases (HAL), which are common enzymes in bacteria, we also tested L-histidine as a substrate for the recombinant enzyme.

For assay [2], the target named is T1, PAL/TAL enzyme from the monocot Zea mays (Zea mays, UniProt Q8VXG7). The experiment in a line: Kinetic parameters of the PAL/TAL enzyme from maize (Rösler et al., 1997). Type of assay: biochemical. To be noted: pH 8.7.
For assay [3], the target named is T1, PAL/TAL enzyme from the monocot Zea mays. The note with it: pH 8.7; cited from earlier work.
Assay [4] concerns the target PAL-1 isozyme from parsley (Petroselinum crispum) (Petroselinum crispum, UniProt P24481). To be noted: cited from earlier work.
A short description of assay [5]: Laser flash photolysis, photocycle kinetics of PYP. More on the design: species or system Halorhodospira halophila. To be noted: flash 440 nm, universal buffer pH 8.0. On the procedure:
The laser flash photolysis and spectroscopy apparatus and the methods used for data analysis were as previously described (Meyer et al., 1987). The PYP sample was dialysed against a universal buffer (20 mM MES, 20 mM HEPES, and 20 mM glycine, pH 8.0) prior to the experiment. We used 1 ml samples, with an absorbance at 445 nm of approximately 0.2, for the kinetic measurements. By flashing the PYP sample with laser light of 440 nm, we could determine the kinetics of the light-induced absorbance changes. FIGS. 9a and 9b show the I1→I2 bleach reaction and the I2→P recovery of our in vivo formed holo-PYP. It can be seen that after a flash with 440 nm light, the PYP went through a normal photocycle. […] The rate of recovery was 7.2 s^−1, compared to 6.3 s^−1 for wild-type and chemically reconstituted PYP (Meyer et al., 1987; Genick et al., 1997). […] Since this is different from the 3.4 ms^−1 reported by Genick et al. (1997), we repeated the experiment under our conditions with native PYP and found the rate to be 1.3 ms^−1. This is approximately the same as what we measured with our recombinant PYP.

For assay [6] the following is noted: reported by Genick et al. (1997); cited from earlier work.

T1 sequence (Q8VXG7 whole entry): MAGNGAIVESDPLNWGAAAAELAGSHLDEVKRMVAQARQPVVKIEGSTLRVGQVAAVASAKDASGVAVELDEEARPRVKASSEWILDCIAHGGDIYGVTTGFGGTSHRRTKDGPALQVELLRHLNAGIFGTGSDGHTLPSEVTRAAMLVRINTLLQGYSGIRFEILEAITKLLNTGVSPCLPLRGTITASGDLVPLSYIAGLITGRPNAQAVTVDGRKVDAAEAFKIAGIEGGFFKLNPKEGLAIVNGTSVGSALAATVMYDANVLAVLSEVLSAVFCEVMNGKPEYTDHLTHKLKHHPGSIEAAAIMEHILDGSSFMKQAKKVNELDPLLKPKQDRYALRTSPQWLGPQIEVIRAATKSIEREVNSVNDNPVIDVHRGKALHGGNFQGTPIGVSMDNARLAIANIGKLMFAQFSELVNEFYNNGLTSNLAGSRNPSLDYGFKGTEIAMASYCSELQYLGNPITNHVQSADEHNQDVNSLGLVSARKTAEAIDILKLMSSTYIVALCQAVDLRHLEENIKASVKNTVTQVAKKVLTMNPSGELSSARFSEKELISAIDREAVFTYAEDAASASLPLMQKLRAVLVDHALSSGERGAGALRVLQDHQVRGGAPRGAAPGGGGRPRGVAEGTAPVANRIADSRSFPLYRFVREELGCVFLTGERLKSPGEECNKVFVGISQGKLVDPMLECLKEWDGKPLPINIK

Take `N[C@@H](Cc1ccccc1)C(=O)O` [L-Phenylalanine, L-phenylalanine]: in assay [1], the “fold higher Km for L-Phe than for L-Tyr” value came to 80 fold and the “pH optimum of activity (TAL with L-tyrosine, PAL with L-phenylalanine)” value came out at 9.4. In addition, in assay [2], the “fold higher Km value for L-Phe compared to L-Tyr” value was 15 fold. Also, in assay [3], the Michaelis constant (Km) is 270 µM and the kcat was 10 s⁻¹. In assay [4], the Km is 17.2 µM and the kcat was 22 s⁻¹.

In the case of `N[C@@H](Cc1ccc(O)cc1)C(=O)O` [L-Tyrosine, L-tyrosine], the “pH optimum of activity (TAL with L-tyrosine, PAL with L-phenylalanine)” value in assay [1] is listed as 8.5. In assay [3], the Km was 19 µM and the kcat is 0.9 s⁻¹. Moreover, the kcat in assay [4] is 0.3 s⁻¹.

Take `N[C@@H](Cc1c[nH]cn1)C(=O)O` [L-histidine]: in assay [1] (spectrophotometric assay of Schwede et al. (1999)), the “activity as substrate (histidine ammonia lyase activity)” value is listed as “could not detect any activity”.

For the molecule `N[C@@H](Cc1c[nH]c2ccccc12)C(=O)O` [L-tryptophan], the activity as substrate result in assay [1] (up to a 5 mM concentration) was “no activity was detected”.

B1: recombinant PYP: holo-photoactive yellow protein formed in vivo in Escherichia coli with TAL, pCL and pyp genes (protein, UniProt P16113 1-125, looked up)
Photoactive yellow protein: MEHVAFGSEDIENTLAKMDDGQLDGLAFGAIQLDGDGNILQYNAAEGDITGRDPKQVIGKNFFKDVAPCTDSPEFYGKFKEGVASGNLNTMFEYTFDYQMTPTKVKVHMKKALSGDSYWVFVKRV
modifications: recombinant holo form, expressed in E. coli
Consider B1, for which the “rate constant of the bleach (I1→I2)” value in assay [5] is recorded as 1.6 ms^−1.

B2: chemically reconstituted PYP: recombinant apo-PYP with the chromophore chemically attached (Genick et al., 1997) (protein, UniProt P16113 1-125, looked up)
Photoactive yellow protein: MEHVAFGSEDIENTLAKMDDGQLDGLAFGAIQLDGDGNILQYNAAEGDITGRDPKQVIGKNFFKDVAPCTDSPEFYGKFKEGVASGNLNTMFEYTFDYQMTPTKVKVHMKKALSGDSYWVFVKRV
modifications: chemically attached chromophore
In the case of B2, in assay [6], the “rate constant of the bleach (I1→I2)” value was 3.4 ms^−1.

B3: wild-type PYP: wild-type Halorhodospira halophila photoactive yellow protein (protein, UniProt P16113 1-125, looked up)
Photoactive yellow protein: MEHVAFGSEDIENTLAKMDDGQLDGLAFGAIQLDGDGNILQYNAAEGDITGRDPKQVIGKNFFKDVAPCTDSPEFYGKFKEGVASGNLNTMFEYTFDYQMTPTKVKVHMKKALSGDSYWVFVKRV
modifications: holo form with chromophore
Take B3: the “rate constant of the bleach (I1→I2)” value in assay [5] is on record as 1.3 ms^−1.

The record behind these values is patent US7241611B2, “Methods for synthesis of holo-photoactive yellow protein” (Universiteit Gent, priority 2002, dated 2007).
